# What was measured:
# [1] = test system: ferroptosis-resistant tumor cells; settings: background statement, references 16-18; cited from earlier work
# [2] = test system: H460 GPX4 KO cells (a human lung cancer cell line); experiment: Xenograft subcutaneous tumor model, H460; format: in vivo, Athymic Nude mice; settings: FIG. 11C; 50 mg/kg i.p. twice per day from day 8
# Protocol: For the xenograft subcutaneous tumor experiments, GPX4^KO H460 cells (5×10^6 cells in 100 μL PBS) were injected subcutaneously into the right flanks of 6-week-old female athymic nude mice. After tumors reached a size of approximately 100 mm^3, mice were randomized and treated with vehicle or icFSP1 (50 mg/kg, Intonation) by i.p. injections twice per day.
# (§1) icFSP1 was dissolved in 45% PEG E 300 (Sigma, Cat #91462-1 KG) and 55% PBS (Gibco, Cat #14190094). Tumors were measured by caliper every day and tumor volume was calculated by the following formula: Tumor volume=length×width^2×0.52. When tumor sizes were either larger than 1000 mm^3 at measurement or tumors became necrotic, these tumors were considered to be human endpoints. When tumors became human endpoints, the experiment was stopped at that point and no further experiments were conducted.
# [3] = test system: Gpx4 KO/Fsp1KO double mutant murine melanoma cells (B16F10) reconstituted with human FSP1; experiment: Syngeneic subcutaneous tumor model; format: in vivo, C57BL6/J mice
# Protocol: All mice were obtained from Charles River. For the syngeneic subcutaneous tumor experiments, Gpx4^KO/Fsp1^KO 1B16F10 cells stably overexpressing hFSP1-HA (1×10^6 cells in 100 μL PBS) were injected subcutaneously into the right flank of 7-week-old female C57BL6/J mice. After tumors reached a size of approximately 25-50 mm^3, mice were randomized and treated with vehicle or icFSP1 (50 mg/kg, Intonation) by i.p. injections twice per day for 4-5 days. For generating tumor samples for staining, Gpx4^KO/Fsp1^KO 1B16F10 cells stably expressing hFSP1-WT-HA or hFSP1-Q319K-HA (1×10^6 cells in 100 μL PBS) were injected subcutaneously into the right flank of 7-week-old female C57BL6/J mice. After tumors reached a size of approximately 50-150 mm^3, mice were treated with vehicle or icFSP1 (50 mg/kg, Intonation) by i.p. injections twice per day for 3 days.
# as §1
# [4] = test system: WT hFSP1 or its mutants S187C, L217R and Q319K; experiment: Saturation transfer difference (STD) NMR; format: binding; settings: FIG. 9; 5 μM recombinant human FSP1, 100-fold molar excess of compound, 10° C.
# Protocol: Saturation transfer difference (STD) experiments were performed at Bruker Avance III HD spectrometer at 600 MHz ^1H frequency using a H/N/C triple resonance cryogenic probe. Spectra were recorded at 10° C. with 5 μM recombinant human FSP1 (mutant) and 100-fold molar excess of icFSP1 in phosphate-buffer saline with additional 150 mM NaCl, 1% (v/v) DMSO-d6 and 10% (v/v) D2O for deuterium-lock. Saturation time was 2.5 sec and on- and off-frequencies were 0.68 and −17 ppm, respectively. NMR spectra were processed using Topspin 4.0.6 (Bruker).
# [5] = test system: GPX4 KO human melanoma cells (A375); experiment: Xenograft subcutaneous tumor model, A375; format: in vivo, nude mice; settings: FIG. 3B; treatment from day 3 post implantation, 50 mg/kg i.p.
# Protocol: For the xenograft subcutaneous tumor experiments, GPX4^KO A375 cells (5×10^6 cells in 100 μL PBS) were injected subcutaneously into the right flank of 7-week-old female athymic nude mice. After tumors reached a size of approximately 25-100 mm^3, mice were randomized and treated with vehicle or icFSP1 (50 mg/kg, Intonation) by i.p. injections twice per day for the first 4 days and afterward once daily.
# as §1
binding by STD spectra [4],Compound,sensitisation towards ferroptosis [1],tumor growth [2],"tumor growth (tumor volume, tumor weight) ([3]; FIG. 3A, treatment from day 6 post implantation, 50 mg/kg i.p. twice per day)","tumor growth, hFSP1 WT versus FSP1-Q319K expressing cells ([3]; FIG. 10E, 50 mg/kg i.p. twice per day from day 6)",tumor growth [5]
,"Cc1ccc(-c2c(C#N)c(N)n3c(nc4ccccc43)c2C#N)cc1 [iFSP1, 1-amino-3-(4-methylphenyl)-pyrido[1,2-a]benzimidazole-2,4-dicarbonitrile]",efficiently sensitizes ferroptosis-resistant tumor cells towards ferroptosis,,,,
show binding of icFSP1,COc1cc(CC(=O)Nc2ccc(-n3c(C)nc4ccccc4c3=O)cc2)cc(OC)c1OC [icFSP1],,inhibits tumor growth in vivo,inhibited tumor growth in both human and mouse tumors significantly,inhibits tumor growth of hFSP1 WT but not of FSP1-Q319K expressing cells,inhibited tumor growth in both human and mouse tumors significantly
